Molecules are shown by their SMILES.

Series [1] concerns HBV. The series is described as follows: Anti-HBV activity: intracellular HBV DNA by quantitative PCR in HepG2.2.15 cells. It counts as cell-based, hepatitis B virus. The conditions noted are these: for EC50: Hepatitis B virus, 168 h, HepG2.2.15 cells, intracellular HBV DNA, day 7 after addition, read-out: EC50 (50% effective concentration), anti-HBV activity. As to the method: Anti-HBV activity was evaluated by quantitative PCR for determining the amount of HBV DNA in cells on the seventh day after the addition of the agent, using the HepG2.2.15 cell line of HBV-producing cells obtained by introducing a gene having a length twice that of the HBV genome into the human liver cancer cell line HepG2. For PCR of HBV DNA, a forward primer (HBV-S190F; 5′-GCT CGT GTT ACA GGC GGG-3′: SEQ ID NO: 1) and a reverse primer (HBV-S703R; 5′-GAACCACTGAACAAATGGCACTAGTA-3′: SEQ ID NO: 2) were used. PCR was performed by carrying out a reaction at 95° C. for 10 sec, 62° C. for 10 sec, and 72° C. for 30 sec for 35 cycles.
Specifically, HepG2.2.15 cells were seeded at a concentration of 1×10^5 cells/well. 24 hours later, the compounds of Example 1 and Comparative Example 1 were diluted to have a concentration of 0, 0.49, 0.97, 1.95, 3.90, 7.81, 15.6, 31.3, 62.5, 125, 250, 500, and 1000 nM; and added to the cells. After the cells were cultured for 7 days, each cytoplasmic compartment was collected, and DNA was purified by phenol-chloroform extraction. 20 ng of the purified DNA was used to measure the amount of intracellular HBV DNA by quantitative PCR.
The EC50 (50% effective concentration) was calculated from a graph showing the relationship between the concentration of the compound and anti-HBV activity.

Series [2] is described as follows: Cytotoxicity test (WST-1) in HepG2 NTCP-myc cells. It counts as cell-based. The note with it: human, 7 days culture, read-out: CC50 (50% cytotoxic concentration). As to the method:
HepG2 NTCP-myc cells were seeded at a concentration of 2×10^4 cells/well. 24 hours later, agents were diluted to have a concentration of 0, 0.49, 0.97, 1.95, 3.90, 7.81, 15.6, 31.3, 62.5, 125, 250, 500, and 1000 nM; and added to the cells. The HepG2 NTCP-myc cells were cultured for 7 days. After the culture, 10 μl of Premix WST-1 Cell Proliferation Assay System (TaKaRa) was added, and the cells were cultured at 37° C. for 2 hours. Thereafter, absorbance was determined at 450 nm using a microplate reader.
The CC50 (50% cytotoxic concentration) was calculated from a graph showing the relationship between the concentration of the compound and cytotoxicity.

In series [3] the test system is HBs antigen. The series is described as follows: HBs antigen level in HepG2.2.15 culture supernatant by CLIA. It counts as cell-based, hepatitis B virus. The note with it: day 4 after addition, compared to Entecavir and Tenofovir disoproxil fumarate (FIG. 2). As to the method: The HBs antigen level was measured by measuring the culture supernatant on the fourth day after the addition of the agent by chemiluminescent immunoassay (CLIA) using HepG2.2.15, i.e., HBV-producing cells obtained by introducing a gene having a length twice that of the HBV genome into the human liver cancer cell line HepG2.

For `OC[C@H]1O[C@@H](n2cnc3c(Cl)nc(Cl)nc32)[C@@H](F)[C@@H]1O` [Comparative Example 1, 2,6-dichloro-9-((2R,3S,4R,5R)-3-fluoro-4-hydroxy-5-(hydroxymethyl)tetrahydrofuran-2-yl)-9H-purine, reference compound], the EC50 in series [1] is > 10 µM.
Take `Nc1nc(F)nc2c1ncn2[C@@H]1O[C@H](CO)C(O)C1F` (stereo partly drawn) [Example 1, 2′-deoxy-2′-fluoro-β-2-fluoro-D-adenosine]: the “SI (CC50/EC50)” value in series [1] (CC50 (HepG2 NTCP-myc) divided by EC50 (HepG2.2.15)) amounted to 213411. For the same compound, the EC50 in series [1] stood at 0.00158 µM. Also, in series [2], the CC50 at 7 days is 337 µM. For the same compound, the “HBs antigen level (relative amount of extracellular HBs antigen)” value in series [3] is given as “remarkably reduced”.

(Values after patent US20220008450A1, “ANTI-HEPATITIS B VIRUS AGENT” (DAIKIN INDUSTRIES, LTD., priority 2018, published 2022).)
